We go through three compounds from patent US20150344457A1, “METHODS OF INHIBITING PRMT5” (EPIZYME, INC., priority 2012, published 2015).

One test concerns the target T1, PRMT5/MEP50 (Homo sapiens, UniProt O14744).
T1 construct: Expressed full-length human Flag-PRMT5/6His-MeP50 protein complex was purified; made in house; host or cells: Spodoptera frugiperda (SF9) insect cells, baculovirus (pDEST8)
Nature of the test: PRMT5 Biochemical Assay (PRMT5/MEP50 enzyme assay on peptide substrate, 3H-SAM Flashplate). Particulars: Table D-2; read-out: Biochemical IC50.

In a further test the test system is Z-138 cells. Nature of the test: Z-138 Proliferation Assay (Cell Titer Glo, 5 days). Format: cell-based. Particulars: Homo sapiens, Table D-2. In a few lines: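 Exponentially growing Z-138 cells (10,000 cells/ml) in RPMI 1640 with 10% FBS are exposed to nine-point 3-fold dilutions (final top concentration 20 μM, 0.2% DMSO) for 5 days at 37° C. Viability is measured as ATP by CellTiter-Glo luminescence. The 50% inhibitory concentration comes from a 4-parameter fit.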

T1 sequence (O14744 with tags, fused parts or gaps): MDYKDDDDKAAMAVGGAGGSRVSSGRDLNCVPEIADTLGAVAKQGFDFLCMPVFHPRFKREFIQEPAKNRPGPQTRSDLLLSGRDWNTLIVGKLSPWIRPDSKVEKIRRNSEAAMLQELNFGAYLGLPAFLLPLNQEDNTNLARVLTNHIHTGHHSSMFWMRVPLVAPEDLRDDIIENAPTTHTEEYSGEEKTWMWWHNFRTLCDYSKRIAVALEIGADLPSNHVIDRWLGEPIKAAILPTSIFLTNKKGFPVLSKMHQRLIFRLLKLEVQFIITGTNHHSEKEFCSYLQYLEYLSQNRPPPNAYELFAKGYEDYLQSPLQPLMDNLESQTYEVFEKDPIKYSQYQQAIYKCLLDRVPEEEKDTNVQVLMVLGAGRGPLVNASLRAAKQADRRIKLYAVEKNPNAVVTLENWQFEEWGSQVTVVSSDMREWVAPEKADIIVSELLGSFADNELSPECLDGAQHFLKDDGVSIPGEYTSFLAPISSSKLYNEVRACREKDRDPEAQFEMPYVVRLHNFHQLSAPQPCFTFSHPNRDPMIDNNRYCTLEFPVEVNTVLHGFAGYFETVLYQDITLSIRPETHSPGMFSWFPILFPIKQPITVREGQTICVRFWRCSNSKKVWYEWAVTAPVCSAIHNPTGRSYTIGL
T1 sequence (Q9BQA1 with tags, fused parts or gaps partner limits assumed): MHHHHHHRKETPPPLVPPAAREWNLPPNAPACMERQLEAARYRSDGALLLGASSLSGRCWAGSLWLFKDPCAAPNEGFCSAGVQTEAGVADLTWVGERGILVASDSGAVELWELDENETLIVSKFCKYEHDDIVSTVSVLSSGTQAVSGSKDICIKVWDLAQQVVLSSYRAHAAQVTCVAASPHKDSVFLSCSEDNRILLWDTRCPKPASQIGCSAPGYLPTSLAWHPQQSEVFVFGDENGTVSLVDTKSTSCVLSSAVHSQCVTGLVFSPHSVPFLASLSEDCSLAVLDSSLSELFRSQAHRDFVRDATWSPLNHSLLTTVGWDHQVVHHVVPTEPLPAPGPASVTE

For the compound `N#Cc1ccccc1-c1cccc(OCC(O)CN2CCc3ccccc3C2)c1` (stereo not drawn) [Compound D93], at PRMT5/MEP50, the IC50 fell in the range of 0.101 to 1 µM. This compound registered a half-maximal effective concentration (EC50) in the test with Z-138 cells of 10 to 40 µM.
Regarding `N#Cc1ccc(-c2cccc(OCC(O)CN3CCc4ccccc4C3)c2)cc1` (stereo not drawn) [Compound D94], the half-inhibitory concentration (IC50) on PRMT5/MEP50 was in the range of 0.101 to 1 µM. The 50% effective concentration (EC50) in the test on Z-138 cells lay in the range of 10 to 40 µM.
On the same counts, the results for `Oc1cccc(-c2cccc(OCC(O)CN3CCc4ccccc4C3)c2)c1` (stereo not drawn) [Compound D95] are 0.101 to 1 µM and 10 to 40 µM.
